Activity calls are given as the source filed them.
Experiments:
[1] = molecular target: T1, Histone-lysine N-methyltransferase NSD2 (Homo sapiens, UniProt O96028); format: biochemical
T1 sequence (O96028 whole entry): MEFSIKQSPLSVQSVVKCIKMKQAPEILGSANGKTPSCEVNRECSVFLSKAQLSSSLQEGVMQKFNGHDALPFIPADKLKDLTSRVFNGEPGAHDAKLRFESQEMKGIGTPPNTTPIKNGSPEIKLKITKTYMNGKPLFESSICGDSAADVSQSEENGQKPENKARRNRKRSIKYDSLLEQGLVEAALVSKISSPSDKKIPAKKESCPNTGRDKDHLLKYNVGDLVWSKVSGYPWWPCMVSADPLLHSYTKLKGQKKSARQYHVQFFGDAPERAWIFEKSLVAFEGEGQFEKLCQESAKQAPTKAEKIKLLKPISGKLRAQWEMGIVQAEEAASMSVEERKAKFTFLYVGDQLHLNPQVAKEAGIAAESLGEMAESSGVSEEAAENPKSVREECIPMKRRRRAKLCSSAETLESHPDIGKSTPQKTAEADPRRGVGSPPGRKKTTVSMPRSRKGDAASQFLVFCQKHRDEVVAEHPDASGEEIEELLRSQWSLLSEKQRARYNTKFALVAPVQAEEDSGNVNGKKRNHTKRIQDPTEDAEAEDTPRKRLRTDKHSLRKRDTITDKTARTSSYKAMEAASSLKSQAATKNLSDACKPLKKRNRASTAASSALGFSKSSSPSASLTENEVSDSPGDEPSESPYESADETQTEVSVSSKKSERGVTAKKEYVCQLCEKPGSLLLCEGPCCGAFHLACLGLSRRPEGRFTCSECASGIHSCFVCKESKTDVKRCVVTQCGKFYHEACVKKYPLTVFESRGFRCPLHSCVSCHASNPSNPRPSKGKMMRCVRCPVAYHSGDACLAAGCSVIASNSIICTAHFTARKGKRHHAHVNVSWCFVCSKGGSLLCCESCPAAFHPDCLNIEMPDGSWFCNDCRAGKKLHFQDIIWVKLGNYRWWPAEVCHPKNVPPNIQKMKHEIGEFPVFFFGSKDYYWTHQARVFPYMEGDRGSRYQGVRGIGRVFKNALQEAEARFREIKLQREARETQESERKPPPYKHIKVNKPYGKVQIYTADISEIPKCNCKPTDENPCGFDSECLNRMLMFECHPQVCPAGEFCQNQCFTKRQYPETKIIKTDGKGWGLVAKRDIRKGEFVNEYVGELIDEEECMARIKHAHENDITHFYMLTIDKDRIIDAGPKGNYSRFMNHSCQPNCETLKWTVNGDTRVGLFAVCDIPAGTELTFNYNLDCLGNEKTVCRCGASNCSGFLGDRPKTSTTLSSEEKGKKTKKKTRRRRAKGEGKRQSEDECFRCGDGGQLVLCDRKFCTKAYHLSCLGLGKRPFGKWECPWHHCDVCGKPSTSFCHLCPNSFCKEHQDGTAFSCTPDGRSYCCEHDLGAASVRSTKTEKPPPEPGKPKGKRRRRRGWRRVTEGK

[2] = HeLa cell cytotoxicity, dose response, cytotoxicity control for MgcRacGAP inhibitor project (AID 624300); format: functional
[3] = molecular target: T2, Rac GTPase-activating protein 1 (Homo sapiens, UniProt Q9H0H5); experiment: MgcRacGAP GTPase-activating activity inhibitors, confirmation, biochemical, ADP Hunter fluorescence, primary and confirmatory (AID 624330); format: functional
T2 sequence (Q9H0H5 whole entry): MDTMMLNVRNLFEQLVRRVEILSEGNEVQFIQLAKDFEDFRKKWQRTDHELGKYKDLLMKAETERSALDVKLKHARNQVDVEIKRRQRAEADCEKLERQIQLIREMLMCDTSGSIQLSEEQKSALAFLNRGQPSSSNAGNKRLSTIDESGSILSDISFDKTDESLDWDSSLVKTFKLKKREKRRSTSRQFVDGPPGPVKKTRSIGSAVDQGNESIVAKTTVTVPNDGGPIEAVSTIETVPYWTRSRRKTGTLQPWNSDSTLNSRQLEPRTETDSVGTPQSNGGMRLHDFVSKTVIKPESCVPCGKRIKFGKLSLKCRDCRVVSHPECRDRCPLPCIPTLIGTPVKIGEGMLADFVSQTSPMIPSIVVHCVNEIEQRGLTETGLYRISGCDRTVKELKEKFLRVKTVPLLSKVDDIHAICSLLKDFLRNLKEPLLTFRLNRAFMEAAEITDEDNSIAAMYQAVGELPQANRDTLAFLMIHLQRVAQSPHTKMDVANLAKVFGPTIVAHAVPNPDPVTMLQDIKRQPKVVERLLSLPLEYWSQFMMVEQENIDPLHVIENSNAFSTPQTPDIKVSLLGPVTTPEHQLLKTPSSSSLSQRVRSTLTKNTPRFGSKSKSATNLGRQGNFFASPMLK

Nonstructural protein 1 = Nonstructural protein 1 (Influenza A virus, UniProt Q194T2); format: functional, Influenza A virus (A/California/07/2009(H1N1))
DNA topoisomerase = DNA topoisomerase (Yersinia pestis, UniProt A0A2S9PM60); experiment: Y. pestis Topo-I inhibitors, cleavage product readout, dose response, biochemical, cherry-pick (AID 588525)
[4] = molecular target: T3, Neuropeptide Y receptor type 1 (Homo sapiens, UniProt P25929); experiment: Fluorescence-based dose response cell-based high-throughput screening assay for agonists of NPY-Y1. [Related pubchem assays: 1697 (Screening assay (NPY-Y1 agonists).), 1359 (Screening assay (NPY-Y2 potentiators or agonists).), 1304 (Screening assay (NPY-Y1 potentiators or agonists).), 1704 (Screening assay (CNGC inhibitors).), 1791 (Summary AID.)]; format: functional
T3 sequence (P25929 whole entry): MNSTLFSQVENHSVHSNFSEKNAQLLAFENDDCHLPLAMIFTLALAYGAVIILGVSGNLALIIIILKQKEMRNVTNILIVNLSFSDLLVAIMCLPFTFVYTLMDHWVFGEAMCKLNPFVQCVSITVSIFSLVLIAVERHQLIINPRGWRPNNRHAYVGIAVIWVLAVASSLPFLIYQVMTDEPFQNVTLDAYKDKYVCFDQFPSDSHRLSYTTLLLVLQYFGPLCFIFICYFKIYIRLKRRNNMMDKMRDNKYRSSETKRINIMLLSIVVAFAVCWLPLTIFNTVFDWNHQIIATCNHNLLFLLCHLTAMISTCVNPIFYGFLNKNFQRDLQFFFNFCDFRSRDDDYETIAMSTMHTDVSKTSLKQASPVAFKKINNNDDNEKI

[5] = molecular target: T4, Neuropeptide Y receptor type 2 (Homo sapiens, UniProt P49146); experiment: Fluorescence-based counterscreen for agonists of NPY-Y1: cell-based high-throughput dose response assay for agonists of NPY-Y2.; format: functional
T4 sequence (P49146 whole entry): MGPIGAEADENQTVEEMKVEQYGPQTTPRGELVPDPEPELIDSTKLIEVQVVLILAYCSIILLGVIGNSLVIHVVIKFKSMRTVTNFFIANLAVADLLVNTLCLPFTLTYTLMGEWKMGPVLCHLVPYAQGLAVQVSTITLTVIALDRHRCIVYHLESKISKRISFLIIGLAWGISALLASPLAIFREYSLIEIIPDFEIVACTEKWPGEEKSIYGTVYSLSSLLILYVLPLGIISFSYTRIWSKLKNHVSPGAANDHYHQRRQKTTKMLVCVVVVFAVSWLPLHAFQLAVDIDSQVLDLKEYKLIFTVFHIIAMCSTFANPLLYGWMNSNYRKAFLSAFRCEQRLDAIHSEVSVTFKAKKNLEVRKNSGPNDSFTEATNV

MEF = experiment: SAR analysis of small molecule cytotoxicity of MazEF TA System activators in embryonic fibroblast (MEF) cells. [Related pubchem assays (depositor defined):AID504720, AID504743]; format: functional; settings: Mus musculus
[6] = molecular target: T5, Endoribonuclease toxin MazF (Escherichia coli K-12, UniProt P0AE70); experiment: fluorescent RNA oligo signal without MazF, dose response, counter-screen for MazEF activator project, biochemical, fluorescence, single-stranded RNase substrate (AID 588502); format: functional
T5 sequence (P0AE70 whole entry): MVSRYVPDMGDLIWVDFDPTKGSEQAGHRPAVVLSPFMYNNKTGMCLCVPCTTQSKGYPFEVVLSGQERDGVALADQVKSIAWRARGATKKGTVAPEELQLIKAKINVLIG

[7] = molecular target: T5, Endoribonuclease toxin MazF; experiment: MazF endoribonuclease activators, SAR follow-up, biochemical, fluorescence, single-stranded RNA substrate (AID 588603); format: functional
[8] = molecular target: T5, Endoribonuclease toxin MazF; experiment: SAR analysis of small molecule activators of the MazEF TA System via a fluorescence-based single-stranded RNase assay counterscreen. [Related pubchem assays (depositor defined):AID504720, AID504743]; format: functional
[9] = molecular target: T5, Endoribonuclease toxin MazF; experiment: MazF toxin RNase activators, dose response, biochemical, fluorescence, single-stranded RNA substrate, uHTS hits (AID 588481); format: functional
HEK293 = experiment: Fluorescence-based counterscreen for potentiators or agonists of NPY-Y1: cell-based high-throughput dose response assay for inhibitors of cyclic nucleotide gated ion channel (CNGC) activity. In this assay, the parental HEK293 cell line transfected with a cyclic-nucleotide gated ion channel (CNGC)-based cAMP sensor is used to measure inhibition of isoproterenol-induced CNGC …; format: functional; settings: Homo sapiens

Sequence of DNA topoisomerase (A0A2S9PM60 whole entry): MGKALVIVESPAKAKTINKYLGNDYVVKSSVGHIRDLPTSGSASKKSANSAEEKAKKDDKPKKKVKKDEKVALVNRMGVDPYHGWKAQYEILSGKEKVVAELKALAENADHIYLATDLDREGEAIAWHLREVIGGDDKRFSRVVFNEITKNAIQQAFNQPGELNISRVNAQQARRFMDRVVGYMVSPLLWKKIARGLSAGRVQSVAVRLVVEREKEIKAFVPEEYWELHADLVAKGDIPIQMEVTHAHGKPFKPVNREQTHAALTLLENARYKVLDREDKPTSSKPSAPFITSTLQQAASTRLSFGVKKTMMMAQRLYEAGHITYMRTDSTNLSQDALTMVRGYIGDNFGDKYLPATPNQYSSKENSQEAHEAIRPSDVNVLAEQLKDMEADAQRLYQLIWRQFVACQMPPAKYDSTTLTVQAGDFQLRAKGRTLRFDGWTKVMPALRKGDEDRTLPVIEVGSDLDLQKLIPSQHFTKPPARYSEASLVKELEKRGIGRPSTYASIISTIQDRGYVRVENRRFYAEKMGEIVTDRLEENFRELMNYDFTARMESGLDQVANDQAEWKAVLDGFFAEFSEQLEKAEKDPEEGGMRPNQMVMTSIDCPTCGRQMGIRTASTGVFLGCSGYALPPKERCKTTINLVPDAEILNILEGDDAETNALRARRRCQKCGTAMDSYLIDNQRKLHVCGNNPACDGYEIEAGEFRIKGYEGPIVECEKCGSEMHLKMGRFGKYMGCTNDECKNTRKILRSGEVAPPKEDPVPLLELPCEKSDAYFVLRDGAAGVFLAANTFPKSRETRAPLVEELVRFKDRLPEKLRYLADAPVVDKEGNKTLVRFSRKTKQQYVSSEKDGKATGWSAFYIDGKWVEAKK
Sequence of Nonstructural protein 1 (Q194T2 whole entry): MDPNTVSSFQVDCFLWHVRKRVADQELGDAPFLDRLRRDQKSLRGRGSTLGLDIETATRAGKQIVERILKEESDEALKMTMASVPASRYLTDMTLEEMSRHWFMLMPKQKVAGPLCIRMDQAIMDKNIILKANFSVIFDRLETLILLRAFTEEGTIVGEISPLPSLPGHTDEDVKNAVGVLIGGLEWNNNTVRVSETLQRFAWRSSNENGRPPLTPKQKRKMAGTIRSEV

COc1cccc2c1C(=N)c1c(O)c3c(c(O)c1C2=O)C[C@@](O)(C(C)=O)C[C@@H]3O[C@H]1C[C@H](N)[C@H](O)[C@H](C)O1
AC50 [1]: 11.5 µM (active)
CC50 [2]: 35.4 µM (active)
IC50 [3]: 50.8 µM (active)
IC50 (Nonstructural protein 1): 11.2 µM (active)
AC50 (DNA topoisomerase): 4.44 µM (active)

O=C(Nc1ccc(Cl)cc1Cl)NC1CCN(S(=O)(=O)c2ccc(F)cc2)CC1
EC50 [4]: 7.41 µM (active)
EC50 [5]: 6.58 µM (active)
CC50 (MEF): 11.8 µM (active)
EC50 [6]: > 99 µM (inactive)
EC50 [7]: 26.9 µM (inactive)
EC50 [8]: > 99 µM (inactive)
EC50 [9]: 7.09 µM (active)
IC50 (HEK293): 4.36 µM (active)

From ChEMBL document CHEMBL1201862, “PubChem BioAssay data set” (2004)
